Measured values reported in patent US9125903B2, “Composition useful for the treatment of lipid metabolism disorders” (SIGMA-TAU INDUSTRIE FARMACEUTICHE RIUNITE, S.P.A., priority 2011, dated 2015).

Experiments:
Assay type in all cases: in vivo
[1] = test system: male CD1 mice on high-cholesterol diet; assay: Plasma total cholesterol levels in male CD1 mice on high-cholesterol diet; design: % Reduction total cholesterol: concentration or dose not given beside the values; details: for % Reduction total cholesterol: VS Cont. (high-cholesterol diet control, group 1); for Total-cholesterol (mg/dL) Mean values ± S.E.: plasma, oral twice a day for 17 days and one time on day 18, blood 8 h from last treatment, post-absorptive, monacolin K 2, fish oil 200, hexacosanol 25, resveratrol 5, Coenzyme Q10 50, vitamin B6 0.3, vitamin B12 0.25, L-carnitine 20 mg/kg
Procedure: (§1) Male CD 1 mice on a high-cholesterol diet (DP/104, Altromin-Rieper) for about 25 days were used. An acclimatization period of seven days was allowed before the start of the high-cholesterol diet.
(§2) Mice were housed inside cages with stainless steel cover-feed and sterilized and dust-free bedding cobs. Animals were housed under a light-dark cycle, keeping temperature and humidity constant. Parameters of the animal rooms are assessed as follows: 22±2° C. temperature, 55±10% relative humidity, about 15-20 filtered air changes/hour and 12 hours circadian cycle of artificial light (7 a.m., 7 p.m.). The environmental conditions were monitored.
(§3) Mice were divided into groups (10 mice per group) and treated orally (1 mL) twice daily with the compounds of the invention or their combinations at the doses reported in the following:
(§4) monacolin K 2 mg/kg (dissolved in water);
(§5) fish oil 200 mg/kg (dissolved in ethanol);
(§6) Hexacosanol 25 mg/kg (dissolved in ethanol);
(§7) resveratrol 5 mg/kg (dissolved in ethanol);
(§8) Coenzyme Q10 50 mg/kg (dissolved in water);
(§9) Vitamin B6 0.3 mg/kg (dissolved in water);
(§10) Vitamin B12 0.25 mg/kg (dissolved in water);
(§11) L-carnitine 20 mg/kg (dissolved in water).
(§12) At the start of treatment, the body weight of the animals was checked and monitoring of the animals' consumption of water and feed was scheduled.
(§13) On day 18, plasma cholesterol, triglyceride and HDL cholesterol were evaluated. […]

[2] = test system: male CD1 mice on high-cholesterol diet; assay: Plasma triglycerides levels in male CD1 mice on high-cholesterol diet; design: % Reduction triglycerides: concentration or dose not given beside the values; details: for % Reduction triglycerides: VS Cont. (high-cholesterol diet control, group 1); for Triglycerides (mg/dL) Mean values ± S.E.: plasma, oral twice a day for 17 days and one time on day 18, blood 8 h from last treatment, post-absorptive, monacolin K 2, fish oil 200, hexacosanol 25, resveratrol 5, Coenzyme Q10 50, vitamin B6 0.3, vitamin B12 0.25, L-carnitine 20 mg/kg
Procedure: as §1, §2, §3, §4, §5, §6, §7, §8, §9, §10, §11, §12, §13

[3] = test system: male CD1 mice on high-cholesterol diet; assay: Plasma HDL-cholesterol levels in male CD1 mice on high-cholesterol diet; details: for % of increase HDL-cholesterol: VS Cont. (high-cholesterol diet control, group 1); for HDL-cholesterol: plasma, mean values ± S.E., oral twice a day for 17 days and one time on day 18, blood 8 h from last treatment, post-absorptive, monacolin K 2, fish oil 200, hexacosanol 25, resveratrol 5, Coenzyme Q10 50, vitamin B6 0.3, vitamin B12 0.25, L-carnitine 20 mg/kg
Procedure: as §1, §2, §3, §4, §5, §6, §7, §8, §9, §10, §11, §12, §13

Compound | % Reduction total cholesterol [1] | Total-cholesterol (mg/dL) Mean values ± S.E. [1] | % Reduction triglycerides [2] | Triglycerides (mg/dL) Mean values ± S.E. [2] | % of increase HDL-cholesterol [3] | HDL-cholesterol [3]
COC1=C(OC)C(=O)C(C/C=C(\C)CC/C=C(\C)CC/C=C(\C)CC/C=C(\C)CC/C=C(\C)CC/C=C(\C)CC/C=C(\C)CC/C=C(\C)CC/C=C(\C)CCC=C(C)C)=C(C)C1=O [Coenzyme Q10] | −3% | 355.8 ± 25.2 mg/dL | −3% | 196.4 ± 22.1 mg/dL | +4% | 23.9 ± 2.2 mg/dL
CC[C@H](C)C(=O)O[C@H]1C[C@@H](C)C=C2C=C[C@H](C)[C@H](CC[C@@H]3C[C@@H](O)CC(=O)O3)[C@H]21 [Monacolin K, monacolin K] | −21% | 289.7 ± 21.0 mg/dL | −8% | 186.3 ± 20.8 mg/dL | +10% | 25.3 ± 2.1 mg/dL
CCCCCCCCCCCCCCCCCCCCCCCCCCO [Hexacosanol] | −16% | 307.2 ± 23.9 mg/dL | −15% | 172.1 ± 12.3 mg/dL | +15% | 26.4 ± 2.0 mg/dL
cobalamin [Vitamin B12] | −4% | 352.1 ± 20.2 mg/dL | −4% | 194.5 ± 17.4 mg/dL | +5% | 24.3 ± 23 mg/dL
C[N+](C)(C)C[C@H](O)CC(=O)[O-] [L-carnitine] | −12% | 322.8 ± 21.1 mg/dL | −5% | 192.3 ± 16.4 mg/dL | +21% | 27.8 ± 2.1 mg/dL
Oc1ccc(/C=C/c2cc(O)cc(O)c2)cc1 [Resveratrol, trans-3,4′,5-trihydroxystilbene] | −4% | 352.1 ± 19.1 mg/dL | −22% | 157.9 ± 12.4 mg/dL | +3% | 23.7 ± 1.9 mg/dL
Cc1ncc(CO)c(CO)c1O.Cl [Vitamin B6] | −5% | 348.5 ± 18.5 mg/dL | −4% | 194.3 ± 16.7 mg/dL | +5% | 24.1 ± 2.5 mg/dL
